{"source": "ChEMBL document CHEMBL3822377", "about": "“Locking PDK1 in DFG-out conformation through 2-oxo-indole containing molecules: Another tools to fight glioblastoma” (Eur J Med Chem, 2016)", "key": {"[1]": {"target": "T1, 3-phosphoinositide-dependent protein kinase 1 (Homo sapiens) (UniProt O15530)", "T1 sequence (whole entry)": "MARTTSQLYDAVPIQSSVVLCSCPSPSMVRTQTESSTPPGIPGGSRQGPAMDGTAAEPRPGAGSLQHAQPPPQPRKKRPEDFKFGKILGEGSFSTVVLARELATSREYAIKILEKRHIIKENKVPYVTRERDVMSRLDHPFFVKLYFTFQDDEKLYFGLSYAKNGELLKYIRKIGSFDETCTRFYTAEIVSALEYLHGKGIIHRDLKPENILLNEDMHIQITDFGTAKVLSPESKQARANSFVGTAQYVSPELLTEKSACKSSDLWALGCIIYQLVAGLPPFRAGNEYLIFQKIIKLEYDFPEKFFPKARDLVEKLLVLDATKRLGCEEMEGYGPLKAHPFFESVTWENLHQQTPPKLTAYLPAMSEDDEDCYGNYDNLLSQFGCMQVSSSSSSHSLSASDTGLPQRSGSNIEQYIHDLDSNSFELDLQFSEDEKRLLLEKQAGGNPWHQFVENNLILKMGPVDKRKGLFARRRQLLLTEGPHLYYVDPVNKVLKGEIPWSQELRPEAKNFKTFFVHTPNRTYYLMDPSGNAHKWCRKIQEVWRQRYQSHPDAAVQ", "test": "Inhibition of PDK1 (unknown origin) at 10 uM by FRET-based Z-lyte assay"}, "[2]": {"target": "Inhibitor of nuclear factor kappa-B kinase subunit alpha (Homo sapiens) (UniProt O15111)", "test": "Inhibition of His-tagged full-length human IKKalpha expressed in baculovirus system at 100 nM by adapta assay"}, "[3]": {"target": "Tyrosine-protein kinase BTK (Homo sapiens) (UniProt Q06187)", "sequence (Q06187 whole entry)": "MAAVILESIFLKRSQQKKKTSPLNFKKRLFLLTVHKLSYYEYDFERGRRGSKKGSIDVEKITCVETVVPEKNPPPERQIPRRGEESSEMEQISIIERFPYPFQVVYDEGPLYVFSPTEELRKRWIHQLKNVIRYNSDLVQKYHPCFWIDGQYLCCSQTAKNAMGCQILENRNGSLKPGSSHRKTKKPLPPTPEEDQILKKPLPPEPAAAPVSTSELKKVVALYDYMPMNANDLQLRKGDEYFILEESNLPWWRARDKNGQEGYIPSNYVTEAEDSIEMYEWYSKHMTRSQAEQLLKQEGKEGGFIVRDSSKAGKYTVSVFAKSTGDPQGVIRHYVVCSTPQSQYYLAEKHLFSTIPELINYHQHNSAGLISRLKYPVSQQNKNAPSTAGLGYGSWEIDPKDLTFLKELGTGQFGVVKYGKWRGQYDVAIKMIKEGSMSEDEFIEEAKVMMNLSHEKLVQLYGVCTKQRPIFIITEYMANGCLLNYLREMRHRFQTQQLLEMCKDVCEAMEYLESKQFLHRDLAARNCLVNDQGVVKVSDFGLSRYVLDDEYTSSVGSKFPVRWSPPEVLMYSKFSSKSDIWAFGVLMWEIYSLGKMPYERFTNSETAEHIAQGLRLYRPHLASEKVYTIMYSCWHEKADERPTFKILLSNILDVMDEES", "test": "Inhibition of His-tagged full-length human BTK expressed in baculovirus system at 100 nM by Z-lyte assay"}, "[4]": {"target": "RAC-gamma serine/threonine-protein kinase (Homo sapiens) (UniProt Q9Y243)", "sequence (Q9Y243 whole entry)": "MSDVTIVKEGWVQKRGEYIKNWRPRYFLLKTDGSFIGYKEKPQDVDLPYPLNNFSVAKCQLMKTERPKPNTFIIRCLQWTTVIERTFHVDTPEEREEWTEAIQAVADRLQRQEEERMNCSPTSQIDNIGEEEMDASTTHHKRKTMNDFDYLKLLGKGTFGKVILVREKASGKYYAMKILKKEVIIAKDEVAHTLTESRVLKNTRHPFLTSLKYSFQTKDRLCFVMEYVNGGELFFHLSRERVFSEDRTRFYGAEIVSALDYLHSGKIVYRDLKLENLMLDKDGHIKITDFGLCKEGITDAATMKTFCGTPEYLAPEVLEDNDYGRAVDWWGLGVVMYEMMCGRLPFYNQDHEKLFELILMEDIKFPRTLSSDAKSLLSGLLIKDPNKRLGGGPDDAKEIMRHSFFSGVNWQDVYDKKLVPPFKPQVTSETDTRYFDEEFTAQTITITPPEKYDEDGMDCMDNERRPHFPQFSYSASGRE", "test": "Inhibition of His-tagged full-length human AKT3 expressed in baculovirus system at 100 nM by Z-lyte assay"}, "[5]": {"target": "AMP-activated protein kinase, AMPK (Homo sapiens) (UniProt P54646+O43741+P54619+Q9UGJ0+Q9Y478+Q13131+Q9UGI9)", "test": "Inhibition of GST/His-tagged full-length human recombinant AMPK A1/B1/G1 expressed in baculovirus system at 100 nM by Z-lyte assay"}, "[6]": {"target": "Serine/threonine-protein kinase B-raf (Homo sapiens) (UniProt P15056)", "sequence (P15056 whole entry)": "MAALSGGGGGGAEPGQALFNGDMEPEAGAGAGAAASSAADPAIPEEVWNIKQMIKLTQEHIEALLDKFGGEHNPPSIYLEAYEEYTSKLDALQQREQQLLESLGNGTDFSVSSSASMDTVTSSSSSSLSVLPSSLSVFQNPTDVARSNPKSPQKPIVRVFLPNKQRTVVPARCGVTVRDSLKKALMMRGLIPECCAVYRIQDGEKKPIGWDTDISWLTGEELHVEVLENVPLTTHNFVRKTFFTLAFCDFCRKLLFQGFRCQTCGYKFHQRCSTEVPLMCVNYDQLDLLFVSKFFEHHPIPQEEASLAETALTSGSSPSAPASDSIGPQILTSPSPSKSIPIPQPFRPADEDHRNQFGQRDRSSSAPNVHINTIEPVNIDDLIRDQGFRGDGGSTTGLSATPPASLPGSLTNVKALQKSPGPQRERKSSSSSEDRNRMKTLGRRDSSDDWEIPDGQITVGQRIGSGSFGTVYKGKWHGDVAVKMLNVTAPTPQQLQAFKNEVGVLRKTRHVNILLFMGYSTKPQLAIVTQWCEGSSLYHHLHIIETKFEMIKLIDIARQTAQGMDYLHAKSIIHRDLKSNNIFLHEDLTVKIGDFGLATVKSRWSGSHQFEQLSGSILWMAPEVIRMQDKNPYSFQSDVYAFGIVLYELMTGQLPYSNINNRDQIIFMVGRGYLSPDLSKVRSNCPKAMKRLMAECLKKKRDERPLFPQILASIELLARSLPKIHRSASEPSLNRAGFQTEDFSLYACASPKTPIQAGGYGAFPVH", "test": "Inhibition of GST-tagged full-length human BRAF expressed in baculovirus system at 100 nM by Z-lyte assay"}, "[7]": {"target": "Calcium/calmodulin-dependent protein kinase type II subunit alpha (Homo sapiens) (UniProt Q9UQM7)", "sequence (Q9UQM7 whole entry)": "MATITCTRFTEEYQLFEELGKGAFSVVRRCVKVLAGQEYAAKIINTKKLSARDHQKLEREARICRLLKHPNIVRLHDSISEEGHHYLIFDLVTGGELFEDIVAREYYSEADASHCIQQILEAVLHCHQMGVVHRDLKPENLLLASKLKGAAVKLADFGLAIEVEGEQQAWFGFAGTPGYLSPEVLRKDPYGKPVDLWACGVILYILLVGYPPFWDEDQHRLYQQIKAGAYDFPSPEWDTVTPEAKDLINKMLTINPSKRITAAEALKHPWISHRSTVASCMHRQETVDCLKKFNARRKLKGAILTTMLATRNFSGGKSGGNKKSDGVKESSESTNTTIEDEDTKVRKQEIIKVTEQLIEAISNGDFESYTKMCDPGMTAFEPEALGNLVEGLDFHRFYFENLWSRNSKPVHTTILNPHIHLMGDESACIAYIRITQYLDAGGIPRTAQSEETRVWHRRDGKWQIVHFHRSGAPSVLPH", "test": "Inhibition of His-tagged full-length human CaMKII alpha expressed in baculovirus system at 100 nM by Z-lyte assay"}, "[8]": {"target": "Serine/threonine-protein kinase MRCK alpha (Homo sapiens) (UniProt Q5VT25)", "test": "Inhibition of His-tagged human CDC42 BPA expressed in baculovirus system at 100 nM by Z-lyte assay"}, "[9]": {"target": "Cyclin-dependent kinase 1/cyclin B1 (Homo sapiens) (UniProt P06493+P14635)", "test": "Inhibition of His-tagged full-length human CDK1/Cyclin B expressed in baculovirus system at 100 nM by Z-lyte assay"}, "[10]": {"target": "Casein kinase I isoform alpha (Homo sapiens) (UniProt P48729)", "test": "Inhibition of GST-tagged human CSNK1A1 expressed in baculovirus system at 100 nM by Z-lyte assay"}, "[11]": {"target": "Glycogen synthase kinase-3 beta (Homo sapiens) (UniProt P49841)", "test": "Inhibition of His-tagged full-length recombinant human GSK3 beta expressed in baculovirus system at 100 nM by Z-lyte assay"}, "[12]": {"target": "Tyrosine-protein kinase ITK/TSK (Homo sapiens) (UniProt Q08881)", "sequence (Q08881 whole entry)": "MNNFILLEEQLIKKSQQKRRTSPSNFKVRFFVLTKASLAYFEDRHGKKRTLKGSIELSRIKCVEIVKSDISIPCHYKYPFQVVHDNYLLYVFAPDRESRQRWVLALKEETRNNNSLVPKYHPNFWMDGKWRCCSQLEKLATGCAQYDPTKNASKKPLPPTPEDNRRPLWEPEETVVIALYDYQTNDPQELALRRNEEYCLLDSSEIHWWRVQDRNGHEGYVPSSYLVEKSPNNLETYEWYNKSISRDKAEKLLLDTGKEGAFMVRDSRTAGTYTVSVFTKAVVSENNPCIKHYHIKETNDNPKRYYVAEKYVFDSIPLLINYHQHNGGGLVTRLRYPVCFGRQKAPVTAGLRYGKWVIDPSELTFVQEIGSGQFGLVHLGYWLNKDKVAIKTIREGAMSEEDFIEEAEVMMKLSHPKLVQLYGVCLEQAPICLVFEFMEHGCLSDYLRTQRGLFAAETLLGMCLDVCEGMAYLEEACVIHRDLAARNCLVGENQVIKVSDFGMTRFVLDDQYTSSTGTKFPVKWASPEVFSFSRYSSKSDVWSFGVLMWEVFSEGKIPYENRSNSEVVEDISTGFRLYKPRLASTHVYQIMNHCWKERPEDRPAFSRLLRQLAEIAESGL", "test": "Inhibition of cytosolic GST-tagged full-length recombinant human ITK expressed in baculovirus system at 100 nM by Z-lyte assay"}, "[13]": {"target": "Mitogen-activated protein kinase 14 (Homo sapiens) (UniProt Q16539)", "sequence (Q16539 whole entry)": "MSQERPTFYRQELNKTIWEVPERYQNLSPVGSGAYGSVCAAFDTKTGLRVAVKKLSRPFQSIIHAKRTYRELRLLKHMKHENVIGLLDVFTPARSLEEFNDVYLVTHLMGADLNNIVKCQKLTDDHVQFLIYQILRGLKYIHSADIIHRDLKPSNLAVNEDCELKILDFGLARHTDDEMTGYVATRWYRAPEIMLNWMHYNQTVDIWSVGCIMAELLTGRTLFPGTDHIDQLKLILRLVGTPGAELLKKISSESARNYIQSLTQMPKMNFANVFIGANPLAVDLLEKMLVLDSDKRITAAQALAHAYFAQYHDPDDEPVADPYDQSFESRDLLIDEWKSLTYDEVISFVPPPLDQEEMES", "test": "Inhibition of GST-tagged full-length human MAPK14 (direct) expressed in Escherichia coli at 100 nM by Z-lyte assay"}, "[14]": {"target": "MAP kinase-activated protein kinase 2 (Homo sapiens) (UniProt P49137)", "sequence (P49137 whole entry, looked up)": "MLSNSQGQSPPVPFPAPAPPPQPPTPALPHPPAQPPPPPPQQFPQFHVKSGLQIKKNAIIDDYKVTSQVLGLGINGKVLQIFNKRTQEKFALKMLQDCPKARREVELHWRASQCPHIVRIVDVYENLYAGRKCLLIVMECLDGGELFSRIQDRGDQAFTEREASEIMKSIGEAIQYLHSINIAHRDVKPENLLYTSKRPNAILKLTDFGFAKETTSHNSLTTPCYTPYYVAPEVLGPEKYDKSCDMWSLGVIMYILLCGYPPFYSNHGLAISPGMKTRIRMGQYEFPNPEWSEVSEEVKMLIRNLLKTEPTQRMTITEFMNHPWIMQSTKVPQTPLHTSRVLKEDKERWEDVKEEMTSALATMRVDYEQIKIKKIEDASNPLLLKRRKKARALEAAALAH", "test": "Inhibition of His-tagged full-length recombinant human MAPKAPK2 expressed in Escherichia coli at 100 nM by Z-lyte assay"}, "[15]": {"target": "Serine/threonine-protein kinase MARK1 (Homo sapiens) (UniProt Q9P0L2)", "test": "Inhibition of GST-tagged full-length recombinant human MARK1 expressed in baculovirus system at 100 nM by Z-lyte assay"}, "[16]": {"target": "Protein kinase C alpha type (Homo sapiens) (UniProt P17252)", "test": "Inhibition of His-tagged full-length human PRKACA expressed in Escherichia coli system at 100 nM by Z-lyte assay"}, "[17]": {"tested_on": "RAF proto-oncogene serine/threonine-protein kinase (Homo sapiens), P04049 [Y340D,Y341D]", "test": "Inhibition of catalytic GST-tagged human RAF1 Y340D/Y341D double mutant expressed in baculovirus system at 100 nM by Z-lyte assay"}, "[18]": {"target": "Rho-associated protein kinase 1 (Homo sapiens) (UniProt Q13464)", "test": "Inhibition of catalytic GST-tagged human ROCK1 expressed in baculovirus system at 100 nM by Z-lyte assay"}, "[19]": {"target": "Ribosomal protein S6 kinase beta-1 (Homo sapiens) (UniProt P23443)", "test": "Inhibition of catalytic GST-tagged human RPS6KB1 expressed in baculovirus system at 100 nM by Z-lyte assay"}, "[20]": {"target": "Proto-oncogene tyrosine-protein kinase Src (Homo sapiens) (UniProt P12931)", "sequence (P12931 2-536 limits assumed)": "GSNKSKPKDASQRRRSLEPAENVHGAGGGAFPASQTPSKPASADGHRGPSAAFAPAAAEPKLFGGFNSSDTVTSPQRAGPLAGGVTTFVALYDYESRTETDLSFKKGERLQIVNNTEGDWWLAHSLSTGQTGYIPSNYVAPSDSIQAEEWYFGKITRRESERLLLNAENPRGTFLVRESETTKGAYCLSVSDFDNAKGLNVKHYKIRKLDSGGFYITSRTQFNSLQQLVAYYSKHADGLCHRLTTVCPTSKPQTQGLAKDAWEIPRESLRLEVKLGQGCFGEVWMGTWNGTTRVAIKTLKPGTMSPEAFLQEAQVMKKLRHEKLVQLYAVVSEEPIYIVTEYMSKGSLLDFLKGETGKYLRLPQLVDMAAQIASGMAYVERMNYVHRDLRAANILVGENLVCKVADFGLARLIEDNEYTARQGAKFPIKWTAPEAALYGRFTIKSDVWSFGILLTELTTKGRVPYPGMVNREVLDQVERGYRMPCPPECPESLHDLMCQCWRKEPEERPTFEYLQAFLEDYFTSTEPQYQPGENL", "test": "Inhibition of His-tagged full-length recombinant human SRC expressed in baculovirus system at 100 nM by Z-lyte assay"}, "[21]": {"test": "(§1) Antiproliferative activity against human U87MG cells after 72 hrs by MTS assay", "type": "functional, cell-based, U-87MG ATCC", "settings": "U-87 MG"}, "U-87MG ATCC": {"tested_on": "U-87MG ATCC", "test": "as §1", "type": "functional, cell-based"}, "[22]": {"test": "(§2) Antiproliferative activity against human GSC cells after 7 days by MTS assay", "type": "functional, cell-based", "settings": "168 h"}, "GSC": {"tested_on": "GSC", "test": "as §2", "type": "functional, cell-based"}, "[23]": {"test": "Induction of apoptosis in human GSC cells assessed as late apoptotic cells by measuring phosphatidylserine externalisation at 10 uM after 7 days in presence of 7-amino-actinomysin by AnnexinV/FITC staining-based flow cytometry (reference value: 4.14%)", "type": "functional"}, "[24]": {"target": "T1, 3-phosphoinositide-dependent protein kinase 1 (Homo sapiens)", "test": "Inhibition of PDK1 in human GSC cells assessed as reduction in AKT phosphorylation at Thr308 residue at 10 uM by ELISA relative to control", "type": "cell-based", "settings": "TDE = time-dependent effect"}, "[25]": {"target": "T1, 3-phosphoinositide-dependent protein kinase 1 (Homo sapiens)", "test": "Inhibition of PDK1 in human U87MG cells assessed as reduction in AKT phosphorylation at Thr308 residue at 10 uM measured at 120 mins by ELISA relative to control", "type": "cell-based", "settings": "U-87MG ATCC"}, "[26]": {"target": "T1, 3-phosphoinositide-dependent protein kinase 1 (Homo sapiens)", "test": "Inhibition of PDK1 in human GSC cells assessed as reduction in AKT phosphorylation at Thr308 residue at 10 uM measured at 120 mins by ELISA relative to control", "type": "cell-based"}}}
{"compound": "O=C(CNC(=O)c1cccn(Cc2ccc(F)c(F)c2)c1=O)Nc1ccc2c(c1)/C(=C/c1cnc[nH]1)C(=O)N2", "values": [{"measurement": "inhibition", "setting": "[1]", "value": 87, "unit": "%"}, {"measurement": "inhibition", "setting": "[2]", "value": 3, "unit": "%"}, {"measurement": "inhibition", "setting": "[3]", "value": -3, "unit": "%"}, {"measurement": "inhibition", "setting": "[4]", "value": 2, "unit": "%"}, {"measurement": "inhibition", "setting": "[5]", "value": 7, "unit": "%"}, {"measurement": "inhibition", "setting": "[6]", "value": 17, "unit": "%"}, {"measurement": "inhibition", "setting": "[7]", "value": 0, "unit": "%"}, {"measurement": "inhibition", "setting": "[8]", "value": -3, "unit": "%"}, {"measurement": "inhibition", "setting": "[9]", "value": 6, "unit": "%"}, {"measurement": "inhibition", "setting": "[10]", "value": -2, "unit": "%"}, {"measurement": "inhibition", "setting": "[11]", "value": 24, "unit": "%"}, {"measurement": "inhibition", "setting": "[12]", "value": 14, "unit": "%"}, {"measurement": "inhibition", "setting": "[13]", "value": 3, "unit": "%"}, {"measurement": "inhibition", "setting": "[14]", "value": 0, "unit": "%"}, {"measurement": "inhibition", "setting": "[15]", "value": 17, "unit": "%"}, {"measurement": "inhibition", "setting": "[16]", "value": -5, "unit": "%"}, {"measurement": "inhibition", "setting": "[17]", "value": 10, "unit": "%"}, {"measurement": "inhibition", "setting": "[18]", "value": -7, "unit": "%"}, {"measurement": "inhibition", "setting": "[19]", "value": -6, "unit": "%"}, {"measurement": "inhibition", "setting": "[20]", "value": 7, "unit": "%"}, {"measurement": "IC50", "setting": "[21]", "value": 450, "unit": "nM"}, {"measurement": "inhibition", "setting": "U-87MG ATCC", "value": "Dose-dependent effect"}, {"measurement": "IC50", "setting": "[22]", "value": 3.36, "unit": "nM"}, {"measurement": "Activity", "setting": "GSC", "value": "Dose-dependent effect"}, {"measurement": "Activity", "setting": "[23]", "value": 22.7, "unit": "%"}, {"measurement": "inhibition", "setting": "[24]", "value": "tde"}, {"measurement": "inhibition", "setting": "[25]", "value": 19.6, "unit": "%"}, {"measurement": "inhibition", "setting": "[26]", "value": 80.4, "unit": "%"}]}
